In patent US8048825B2, “Haloalkylsulfonanilide derivatives or salt thereof, herbicide comprising the derivatives as active ingredient, and use of the herbicide” (Nihon Nohyaku Co., Ltd., priority 2006, dated 2011):

Tests used:
Type in all cases: in vivo
Scirpus juncoides [1] = experiment: Herbicidal efficacy on paddy field weeds of pre-emergence stage (Pre), Test Example 1; conditions: 1000 g/ha as active ingredient, examined after 21 days
How it was run: (§1)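 Clay-loam pots sown with Scirpus juncoides, covered with soil containing Lindernia procumbens seed, flooded to 5 cm. Next day formulated compound applied dropwise to water at 1000 g/ha a.i. Greenhouse-grown; growth inhibition versus untreated scored 0–5 after 21 days.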

Lindernia procumbens [2] = experiment: as above; conditions: 1000 g/ha as active ingredient, examined after 21 days
How it was run: as §1

Echinochloa crus-galli = experiment: Herbicidal effect on paddy field weeds of post-emergence stage (Post), Test Example 2; conditions: one-leaf stage, 1000 g/ha as active ingredient, examined after 21 days
How it was run: (§2)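 Scirpus juncoides and Echinochloa crus-galli sown in clay loam, with Lindernia procumbens seed in the soil cover, under 5 cm flooding in greenhouse. At one-leaf stage, 1000 g/ha active ingredient applied to pot water. Efficacy scored visually 0–5 against untreated plants at 21 days after treatment.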

Scirpus juncoides [3] = experiment: as above; conditions: one-leaf stage, 1000 g/ha as active ingredient, examined after 21 days
How it was run: as §2

Lindernia procumbens [4] = experiment: as above; conditions: one-leaf stage, 1000 g/ha as active ingredient, examined after 21 days
How it was run: as §2

SMILES	Scirpus juncoides pre (herbicidal effect) (Scirpus juncoides [1])	Lindernia procumbens pre (herbicidal effect) (Lindernia procumbens [2])	Echinochloa crus-galli post (herbicidal effect) (Echinochloa crus-galli)	Scirpus juncoides post (herbicidal effect) (Scirpus juncoides [3])	Lindernia procumbens post (herbicidal effect) (Lindernia procumbens [4])
CCOC(=O)N(c1ccccc1CN1CCC(C)(C(F)(F)F)OC1=O)S(=O)(=O)C(F)(F)F (stereo not shown) [Compound 1-82]	5 (100% herbicidal effect, phytotoxicity)	5 (100% herbicidal effect, phytotoxicity)	4 (90%-99% herbicidal effect, phytotoxicity)	4 (90%-99% herbicidal effect, phytotoxicity)	5 (100% herbicidal effect, phytotoxicity)
CC(C)(C)COC(=O)N(c1ccccc1CN1CCC(C)(C(F)(F)F)OC1=O)S(=O)(=O)C(F)(F)F (stereo not shown) [Compound 1-86]	4 (90%-99% herbicidal effect, phytotoxicity)	4 (90%-99% herbicidal effect, phytotoxicity)	4 (90%-99% herbicidal effect, phytotoxicity)	4 (90%-99% herbicidal effect, phytotoxicity)	4 (90%-99% herbicidal effect, phytotoxicity)
CCC1(C(F)(F)F)CCN(Cc2ccccc2NS(=O)(=O)C(F)(F)F)C(=O)O1 (stereo not shown) [Compound 1-91]	4 (90%-99% herbicidal effect, phytotoxicity)	5 (100% herbicidal effect, phytotoxicity)	4 (90%-99% herbicidal effect, phytotoxicity)	4 (90%-99% herbicidal effect, phytotoxicity)	5 (100% herbicidal effect, phytotoxicity)
CCC1(C(F)(F)F)CCN(Cc2ccccc2N(C(=O)OC)S(=O)(=O)C(F)(F)F)C(=O)O1 (stereo not shown) [Compound 1-92]	4 (90%-99% herbicidal effect, phytotoxicity)	5 (100% herbicidal effect, phytotoxicity)	4 (90%-99% herbicidal effect, phytotoxicity)	4 (90%-99% herbicidal effect, phytotoxicity)	5 (100% herbicidal effect, phytotoxicity)
CCOC(=O)N(c1ccccc1CN1CCC(CC)(C(F)(F)F)OC1=O)S(=O)(=O)C(F)(F)F (stereo not shown) [Compound 1-93]	5 (100% herbicidal effect, phytotoxicity)	5 (100% herbicidal effect, phytotoxicity)	4 (90%-99% herbicidal effect, phytotoxicity)	4 (90%-99% herbicidal effect, phytotoxicity)	5 (100% herbicidal effect, phytotoxicity)
CCC1(C(F)(F)F)CCN(Cc2ccccc2N(C(=O)OCC(C)C)S(=O)(=O)C(F)(F)F)C(=O)O1 (stereo not shown) [Compound 1-96]	4 (90%-99% herbicidal effect, phytotoxicity)	5 (100% herbicidal effect, phytotoxicity)	4 (90%-99% herbicidal effect, phytotoxicity)	4 (90%-99% herbicidal effect, phytotoxicity)	5 (100% herbicidal effect, phytotoxicity)
CCC1(CC)CCN(Cc2ccccc2NS(=O)(=O)C(F)(F)F)C(=O)O1 [Compound 1-102]	4 (90%-99% herbicidal effect, phytotoxicity)	4 (90%-99% herbicidal effect, phytotoxicity)	4 (90%-99% herbicidal effect, phytotoxicity)	4 (90%-99% herbicidal effect, phytotoxicity)	4 (90%-99% herbicidal effect, phytotoxicity)
CCOC(=O)N(c1ccccc1CN1CCC(CC)(CC)OC1=O)S(=O)(=O)C(F)(F)F [Compound 1-104]	4 (90%-99% herbicidal effect, phytotoxicity)	4 (90%-99% herbicidal effect, phytotoxicity)	4 (90%-99% herbicidal effect, phytotoxicity)	4 (90%-99% herbicidal effect, phytotoxicity)	4 (90%-99% herbicidal effect, phytotoxicity)
